Experimental data published in patent US20020049157A1, “Use of proteasome inhibitors for treating cancer, inflammation, autoimmune disease, graft rejection and septic shock” (priority 1998, published 2002).

Assays:
Peripheral blood T cells = assay: Mitogen-stimulated T cell proliferation (3H-thymidine uptake); type: cell-based, human; settings: for inhibition of subsequent PHA-stimulated proliferation after preincubation and wash: 10 μM LAC; for inhibition of T cell proliferation (3H-thymidine uptake): LAC added at 0 h
Protocol: Lymphocytes were stimulated with various mitogens as indicated, and LAC at different concentrations was added at the beginning of the cultures. The cells were pulsed with 3H-thymidine between 48 h and 64 h. Samples were in triplicates. All the experiments were performed at least three times and similar results were obtained. Representative results are shown.
A: Peripheral blood T cells stimulated with PHA (2 μg/ml).
B: Peripheral blood T cells stimulated with OKT3 (50 ng/ml).
C: Peripheral blood T cells stimulated with anti-CD28 (50 ng/ml) plus ionomycin (1 μg/ml).
A. The rapid effect of LAC Peripheral blood T cells were pretreated with 10 μM LAC in culture medium or in culture medium alone for 3 h or 16 h. The cells were then washed and recultured in the presence of 2 μg/ml PHA for 64 h. The cells were pulsed with ^3H-thymidine for 16 h before they were harvested at 64 h. Samples were in triplicates.
C and D. LAC blocks the S phase entry of the mitogen-stimulated peripheral blood T cells Peripheral blood T cells were stimulated with PHA (2 μ/ml) in the absence or presence of LAC (10 μM, added at 0 h, 16 h, 24 h, or 40 h, as indicated in the bottom of the panels). For the flow cytometry analysis of the cell cycle progress, the cells were harvested at 0 h, 1 6 h, 40 h and 64 h as indicated on the top of the panels (FIG. 6C). For ^3H-thymidine uptake, the triplicated cell samples were pulsed at 48 h and harvested at 64 h (FIG. 6D).
The role of proteasome in T cell activation and proliferation was first examined in PBMC, using the proteasome-specific inhibitor LAC. The PBMC were activated with various stimulants. LAC was added to the cells in the beginning of the culture (0 h) along with the stimulants. ^3H-thymidine uptake between 48 h and 64 h of 64 h cultures was used as a parameter for cell proliferation. […] Rather, it likely affects certain downstream events governing a more general process(es) in lymphocyte activation and proliferation.
We next investigated how fast and how long LAC could exert its effects on the lymphocytes, since this information is necessary to assess the requirement of the proteasome activity for events related to cell activation and proliferation. The cells were then washed and recultured in the presence of PHA. The thymidine uptake was measured 3 days later.
Peripheral blood mononuclear cells (PBMC) and tonsillar T cells were prepared as described before (Luo et al., 1992, Transplantation 53:1071; Luo et al., 1993, Clin. & Exp. Immunol. 94:371). The cells were cultured in RPMI 1640 supplemented with 10% FCS, L-glutamine and antibiotics. ^3H-thymidine uptake was carried out as described previously (Luo et al., 1992, supra; Luo et al., 1993, supra).

Jurkat cells = assay: DNA fragmentation (DNA laddering) in Jurkat cells; type: cell-based; settings: LAC 6 μM
Protocol: Tonsillar T cells (A, B, and D) and Jurkat cells (C and E) were treated with LAC (10 μM for T cells and 6 μM for Jurkat cells). LAC was added at the beginning of the culture or 40 h after T cell activation as indicated. The cells were harvested at the time points as shown. They were evaluated for their viability with trypan blue exclusion (A, B, and C), and for their mode of cell death according to DNA fragmentation (D and E).
Jurkat cells were treated with LAC (6 μM) in the absence or presence of different concentrations of zVAD.fms (0.4 μM to 33.3 μM) for 6 h. The cells were harvested and their DNA was analyzed by a DNA fragmentation assay according to DNA laddering.
We next employed DNA laddering to study the mode of cell death caused by LAC, and the result of this experiment also reflected the degree of cell death after different treatments. […] After 24 h of LAC treatment, the ladders became less discrete, and this probably reflected further DNA breakdown.
The assay was performed according to a protocol described by Liu et al (Liu et al., 1997, Cell. 89:175) with some modifications. Briefly, 2-6 million cells were re-suspended in 50 μl PBS followed by 300 μl lysis buffer (100 mM Tris-HCl, pH 8.0, 5 mM EDTA, 0.2 M NaCl. 0.2% w/v SDS, and 0.2 mg/ml proteinase K). After overnight incubation at 37° C., 350 μl of 3M NaCl was added to the mixture and cell debris was removed by centrifugation at 13000 g for 20 min at room temperature. DNA in the supernatant was precipitated with an equal volume of 100% ethanol. The pellet was washed with cold 70% ethanol and then dissolved in 20 μl of TE containing 0.2 mg/ml RNase A. After incubation at 37° C. for 2 h, the DNA was resolved on 2% agarose gel and visualized with ethidium bromide staining.

Bik = assay: Immunoblotting of Bik in wild type Namalwa cells; type: cell-based, human; settings: 6 h; lactacystin 6 μM, staurosporine 0.3 μM
Protocol: Jurkat cells, wild type Namalwa cells and Bcl-xL transfected Namalwa cells were treated with medium (lanes 1), staurosporine (0.3 μM, lanes 2) and lactacystin (6 μM, lanes 3) for 6 H. The proteins from the mitochondrial fraction of these cells were analyzed by immunoblotting and the amount of Bik, Bcl-xL, Bax, and Bak evaluated. The same membranes were used sequentially and probed with different antibodies against these factors. A nonspecific band recognized by a monoclonal antibody against cytochrome […] (COX) was used as control for even sample loading in the lanes.

Namalwa = assay: Quantitative filter elution assay of DNA fragmentation in Namalwa cells; type: cell-based, human; settings: lactacystin 0.75-10 μM; 24-96 h
Protocol: A human B cell line Namalwa was stably transfected with an anti-apoptotic Bcl-2 family member Bcl-xL, and its sensitivity to the proteasome inhibitor-induced apoptosis tested by the quantitative filter elution assay (Schmitt et al., 1998, Exp. Cell Res. 240:107), which detects DNA fragmentation during apoptosis. The wild type Namalwa and transfected Namalwa cells overexpressing Bcl-xL were pulsed with ^14C-thymidine for 24 h, and then treated with different concentrations of lactacystin (0.75 μM, 1.5 μM, 3 μM, 6 μM and 10 μM). The cells were harvested at different time intervals (24-96 h), and DNA fragmentation measured.

How did the “inhibition of subsequent PHA-stimulated proliferation after preincubation and wash” value (Peripheral blood T cells; 3 h preincubation) turn out when CC(=O)N[C@@H](CSC(=O)[C@]1([C@@H](O)C(C)C)NC(=O)[C@H](C)[C@@H]1O)C(=O)O [LAC, lactacystin] was run?
The value was “significant inhibition”.

What about the “inhibition of subsequent PHA-stimulated proliferation after preincubation and wash” value (Peripheral blood T cells; 16 h preincubation, compared with 3 h) of the same compound?
The value was “more effective”.

And the “inhibition of T cell proliferation (3H-thymidine uptake)” value (from here on “inhibition … (3H-thymidine uptake)”) (Peripheral blood T cells; Ca++ ionophore plus cross-linking of CD28)?
Its value is “strongly and dose-dependently inhibited”.

And the “extent of inhibition of T cell proliferation” value (Peripheral blood T cells; LAC at 5 μM, PHA, anti-CD3, anti-CD28 plus ionomycin systems)?
Its value is “near-to-maximal inhibition”.

What about the “inhibition of 3H-thymidine uptake” value (Peripheral blood T cells; PHA, LAC 10 μM added as late as 40 h, pulsed 48 h, harvested 64 h) of the same compound?
Its value is “strongly inhibitory”.

And the “inhibition … (3H-thymidine uptake)” value (Peripheral blood T cells; crosslinking TCR with anti-CD3)?
Its value is “strongly and dose-dependently inhibited”.

And the “inhibition … (3H-thymidine uptake)” value (Peripheral blood T cells; induced by PHA, uptake 48-64 h)?
The value was “strongly and dose-dependently inhibited”.

And the “onset of DNA fragmentation” value (Jurkat cells)?
Its value is “detected as early as 6 h”.

What about the DNA fragmentation (Jurkat cells; after 16 h) of the same compound?
Its DNA fragmentation is “more prominent”.

What about the “accumulation of Bik in Namalwa cells” value (Bik) of the same compound?
Its value is “accumulates”.

And the “DNA fragmentation in Bcl-xL transfected vs wild type Namalwa cells” value (Namalwa)?
Its value is “demonstrably less DNA fragmentation”.
